Measured values reported in ChEMBL document CHEMBL1201862, “PubChem BioAssay data set” (2004).
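Interpolation was linear, between the two tested concentrations surrounding the appropriate level; five concentrations were tested over 48 hours in 96-well plates. GI50 marks 50% less growth.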 Active and inactive are the calls of the source. No stated cut-off is given here; in the data, active = GI50 up to about 1.1 µM and inactive = higher.

Columns and labels:
Test in all cases: inhibition of tumour cell growth, NCI panel, 48 h
786-0 = tested on: 786-0
EKVX = tested on: EKVX
HCC 2998 = tested on: HCC 2998
HCT-15 = tested on: HCT-15
HL-60 = tested on: HL-60
Hs-578T = tested on: Hs-578T
KM12 = tested on: KM12
LOX IMVI = tested on: LOX IMVI
MDA-MB-231 = tested on: MDA-MB-231
MDA-MB-435 = tested on: MDA-MB-435
MOLT-4 = tested on: MOLT-4
SF-539 = tested on: SF-539
SK-MEL-28 = tested on: SK-MEL-28
SK-MEL-5 = tested on: SK-MEL-5
SK-OV-3 = tested on: SK-OV-3
SNB-75 = tested on: SNB-75
SR = tested on: SR
U-251 = tested on: U-251
UACC-62 = tested on: UACC-62
UO-31 = tested on: UO-31

Row | SMILES | GI50 (786-0) | GI50 (EKVX) | GI50 (HCC 2998) | GI50 (HCT-15) | GI50 (HL-60) | GI50 (Hs-578T) | GI50 (KM12) | GI50 (LOX IMVI) | GI50 (MDA-MB-231) | GI50 (MDA-MB-435) | GI50 (MOLT-4) | GI50 (SF-539) | GI50 (SK-MEL-28) | GI50 (SK-MEL-5) | GI50 (SK-OV-3) | GI50 (SNB-75) | GI50 (SR) | GI50 (U-251) | GI50 (UACC-62) | GI50 (UO-31)
1 | CCCC[C@@H](C)/C=C1\CN2CCC[C@H]2[C@@](C)(O)[C@@H]1O | 45.2 µM (inactive) | > 100 µM (inactive) | 71.3 µM (inactive) | > 100 µM | 1.92 µM (inactive) | > 100 µM (inactive) | > 100 µM (inactive) | 22.8 µM (inactive) | > 100 µM (inactive) | 96.2 µM (inactive) | > 100 µM (inactive) | 62.2 µM (inactive) | > 100 µM (inactive) | 79.1 µM (inactive) | 73.3 µM (inactive) | 20.2 µM (inactive) | 9.2 µM (inactive) | 66.2 µM (inactive) | 38.7 µM (inactive) | 50.7 µM (inactive)
2 | CNC(=S)N(C1CCCCC1)C1CCCCC1 | > 100 µM (inactive) | 34.8 µM (inactive) | > 100 µM (inactive) | > 100 µM | 27.4 µM (inactive) | 26.3 µM (inactive) | 55.8 µM (inactive) | > 100 µM (inactive) | > 100 µM (inactive) | > 100 µM (inactive) | 37.3 µM (inactive) | > 100 µM (inactive) | > 100 µM (inactive) | 49 µM (inactive) | > 100 µM (inactive) | 65.3 µM (inactive) | 42.4 µM (inactive) | > 100 µM (inactive) | > 100 µM (inactive) | 85.5 µM (inactive)
3 | CCOC(=O)C(=O)C(=O)NN(C)C1=NCCN1 | > 100 µM (inactive) | > 100 µM (inactive) | > 100 µM (inactive) | > 100 µM | > 100 µM (inactive) | > 100 µM (inactive) | > 100 µM (inactive) | > 100 µM (inactive) | > 100 µM (inactive) | > 100 µM (inactive) | > 100 µM (inactive) | > 100 µM (inactive) | > 100 µM (inactive) | > 100 µM (inactive) | > 100 µM (inactive) | > 100 µM (inactive) | > 100 µM (inactive) | > 100 µM (inactive) | > 100 µM (inactive) | > 100 µM (inactive)
4 | O=C1C=C(Br)c2c(Br)sc(Br)c21 | 2.53 µM (inactive) | 18 µM (inactive) | 13.8 µM (inactive) | 5.61 µM | 5.36 µM (inactive) | 30.2 µM (inactive) | 17 µM (inactive) | 2.37 µM (inactive) | 17.2 µM (inactive) | 10 µM (inactive) | 2.77 µM (inactive) | 5.13 µM (inactive) | 18.9 µM (inactive) | 16.3 µM (inactive) | 21.4 µM (inactive) | 18.3 µM (inactive) | 2.9 µM (inactive) | 13.9 µM (inactive) | 14 µM (inactive) | 3.4 µM (inactive)
5 | CCC(=O)NC(Nc1cccc(F)c1C)(C(F)(F)F)C(F)(F)F | > 100 µM (inactive) | > 100 µM (inactive) | > 100 µM (inactive) | > 100 µM | > 100 µM (inactive) | 54.5 µM (inactive) | > 100 µM (inactive) | > 100 µM (inactive) | > 100 µM (inactive) | > 100 µM (inactive) | > 100 µM (inactive) | > 100 µM (inactive) | > 100 µM (inactive) | > 100 µM (inactive) | > 100 µM (inactive) | > 100 µM (inactive) | 75.3 µM (inactive) | > 100 µM (inactive) | > 100 µM (inactive) | 94.6 µM (inactive)
6 | CCOC(=O)C(NC(=O)c1cccc(Cl)c1)(N1CCN(c2cc3c(cc2F)c(=O)c(C(=O)O)cn3CC)CC1)C(F)(F)F (stereo not given) | 14.7 µM (inactive) | 17.1 µM (inactive) | 12.6 µM (inactive) | 17.6 µM | 4.47 µM (inactive) | 15.6 µM (inactive) | 11.7 µM (inactive) | 17.7 µM (inactive) | 15.8 µM (inactive) | 14.5 µM (inactive) | 3.85 µM (inactive) | 15.2 µM (inactive) | 17 µM (inactive) | 14.2 µM (inactive) | 23.9 µM (inactive) | 21.4 µM (inactive) | 17.1 µM (inactive) | 6.7 µM (inactive) | 16.4 µM (inactive) | 19.2 µM (inactive)
7 | CC1(O)C(=O)OC2CC([C@]3(O)CCC4[C@@H]5C[C@H]6O[C@]67[C@@H](O)C=CC(=O)[C@]7(C)C5CC[C@@]43C)C1(C)C2 (stereo not given in full) | 12.9 µM (inactive) | 45 µM (inactive) | 42 µM (inactive) | 17.9 µM | 3.52 µM (inactive) | 26.3 µM (inactive) | 27 µM (inactive) | 4.54 µM (inactive) | 16.7 µM (inactive) | 15.7 µM (inactive) | 2.89 µM (inactive) | 18.2 µM (inactive) | 9.35 µM (inactive) | 16.9 µM (inactive) | 47.9 µM (inactive) | 29.8 µM (inactive) | 2.69 µM (inactive) | 23.5 µM (inactive) | 14.9 µM (inactive) | 22.9 µM (inactive)
